Reference: PubChem BioAssay (NCI)
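Cells were grown in 96-well plates and exposed to each compound for 48 hours at five concentrations; endpoints were interpolated linearly between bracketing concentrations, or set to the highest concentration if not reached. Abbreviation: GI50, concentration required for 50% inhibition of growth. TGI marks complete inhibition of growth.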

What was measured:
Test in all cases: NCI tumour cell line growth inhibition, 48 h
K-562 leukemia = tested on: K-562 leukemia
RPMI-8226 leukemia = tested on: RPMI-8226 leukemia
SK-MEL-2 melanoma = tested on: SK-MEL-2 melanoma
OVCAR-3 ovarian = tested on: OVCAR-3 ovarian
A549 NSCLC = tested on: A549 NSCLC
UACC-257 melanoma = tested on: UACC-257 melanoma
SK-OV-3 ovarian = tested on: SK-OV-3 ovarian
EKVX NSCLC = tested on: EKVX NSCLC
RXF 393 renal = tested on: RXF 393 renal
OVCAR-4 ovarian = tested on: OVCAR-4 ovarian
MALME-3M melanoma = tested on: MALME-3M melanoma
M14 melanoma = tested on: M14 melanoma
SF-295 CNS = tested on: SF-295 CNS
SR leukemia = tested on: SR leukemia
OVCAR-8 ovarian = tested on: OVCAR-8 ovarian
TK-10 renal = tested on: TK-10 renal
SK-MEL-5 melanoma = tested on: SK-MEL-5 melanoma
MDA-MB-435 = tested on: MDA-MB-435
SW-620 colon = tested on: SW-620 colon
SF-268 CNS = tested on: SF-268 CNS
UO-31 renal = tested on: UO-31 renal
MCF7 breast = tested on: MCF7 breast
HOP-62 NSCLC = tested on: HOP-62 NSCLC
HL-60(TB) leukemia = tested on: HL-60(TB) leukemia
SF-539 CNS = tested on: SF-539 CNS
KM12 colon = tested on: KM12 colon
NCI-H460 lung = tested on: NCI-H460 lung
UACC-62 melanoma = tested on: UACC-62 melanoma
NCI-H522 lung = tested on: NCI-H522 lung
MOLT-4 leukemia = tested on: MOLT-4 leukemia
CAKI-1 renal = tested on: CAKI-1 renal
NCI-H226 lung = tested on: NCI-H226 lung
786-0 renal = tested on: 786-0 renal
U251 CNS = tested on: U251 CNS
HT29 colon = tested on: HT29 colon
HS 578T breast = tested on: HS 578T breast
HCT-15 colon = tested on: HCT-15 colon
NCI/ADR-RES ovarian = tested on: NCI/ADR-RES ovarian
OVCAR-5 ovarian = tested on: OVCAR-5 ovarian
ACHN renal = tested on: ACHN renal
PC-3 prostate = tested on: PC-3 prostate
MDA-MB-231 breast = tested on: MDA-MB-231 breast
HOP-92 NSCLC = tested on: HOP-92 NSCLC
LOX IMVI melanoma = tested on: LOX IMVI melanoma
NCI-H23 lung = tested on: NCI-H23 lung
COLO 205 colon = tested on: COLO 205 colon
CCRF-CEM leukemia = tested on: CCRF-CEM leukemia
SK-MEL-28 melanoma = tested on: SK-MEL-28 melanoma
SNB-19 CNS = tested on: SNB-19 CNS
HCC-2998 colon = tested on: HCC-2998 colon
T-47D breast = tested on: T-47D breast
SNB-75 CNS = tested on: SNB-75 CNS
SN12C renal = tested on: SN12C renal
IGROV1 ovarian = tested on: IGROV1 ovarian
HCT-116 colon = tested on: HCT-116 colon
A498 renal = tested on: A498 renal
BT-549 breast = tested on: BT-549 breast
DU-145 prostate = tested on: DU-145 prostate

## CC(C)CCSC1=CC(=O)c2ccccc2C1=O
K-562 leukemia
  GI50: 0.313 µM
  TGI: 1.2 µM
RPMI-8226 leukemia
  GI50: 0.0469 µM
  TGI: 0.304 µM
SK-MEL-2 melanoma
  GI50: 6.73 µM
  TGI: 17.3 µM
OVCAR-3 ovarian
  GI50: 1.17 µM
  TGI: 2.39 µM
A549 NSCLC
  GI50: 32.6 µM
  TGI: > 82.8 µM
UACC-257 melanoma
  GI50: 13.3 µM
  TGI: 26.7 µM
SK-OV-3 ovarian
  GI50: 26.1 µM
  TGI: > 81.2 µM
EKVX NSCLC
  GI50: 4.5 µM
  TGI: 16.6 µM
RXF 393 renal
  GI50: 5.06 µM
  TGI: 16.3 µM
OVCAR-4 ovarian
  GI50: 1.57 µM
  TGI: 3.05 µM
MALME-3M melanoma
  GI50: 1.57 µM
  TGI: 4.24 µM
M14 melanoma
  GI50: 15.6 µM
  TGI: 33.4 µM
SF-295 CNS
  GI50: 14.7 µM
  TGI: 42.2 µM
SR leukemia
  GI50: 0.0506 µM
  TGI: 0.616 µM
OVCAR-8 ovarian
  GI50: 4.56 µM
  TGI: 17.3 µM
TK-10 renal
  GI50: 12.4 µM
  TGI: 24.8 µM
SK-MEL-5 melanoma
  GI50: 0.723 µM
  TGI: 20.1 µM
MDA-MB-435
  GI50: 3.88 µM
  TGI: 13.8 µM
SW-620 colon
  GI50: 2.59 µM
  TGI: 8.91 µM
SF-268 CNS
  GI50: 6.66 µM
  TGI: 23.8 µM
UO-31 renal
  GI50: 0.627 µM
  TGI: 4.18 µM
MCF7 breast
  GI50: 1.42 µM
  TGI: 3.63 µM
HOP-62 NSCLC
  GI50: 23.5 µM
  TGI: > 59.1 µM
HL-60(TB) leukemia
  GI50: 0.325 µM
  TGI: 0.943 µM
SF-539 CNS
  GI50: 5.74 µM
  TGI: 22.7 µM
KM12 colon
  GI50: 7.36 µM
  TGI: 21.5 µM
NCI-H460 lung
  GI50: 16.7 µM
  TGI: 42.9 µM
UACC-62 melanoma
  GI50: 4.02 µM
  TGI: 14.8 µM
NCI-H522 lung
  GI50: 1.6 µM
  TGI: 6.38 µM
MOLT-4 leukemia
  GI50: 0.228 µM
  TGI: 0.611 µM
CAKI-1 renal
  GI50: 10.3 µM
  TGI: 21.9 µM
NCI-H226 lung
  GI50: 6.82 µM
  TGI: 32.8 µM
786-0 renal
  GI50: 19.8 µM
  TGI: 34.4 µM
U251 CNS
  GI50: 8.11 µM
  TGI: 21.5 µM
HT29 colon
  GI50: 23.7 µM
  TGI: 53.7 µM
HS 578T breast
  GI50: 5.5 µM
  TGI: 30.7 µM
HCT-15 colon
  GI50: 6.61 µM
  TGI: 19.1 µM
NCI/ADR-RES ovarian
  GI50: 8.75 µM
  TGI: 40.1 µM
OVCAR-5 ovarian
  GI50: 18.1 µM
  TGI: 34 µM
ACHN renal
  GI50: 1.84 µM
  TGI: 5.69 µM
PC-3 prostate
  GI50: 1.96 µM
  TGI: 6.85 µM
MDA-MB-231 breast
  GI50: 1.36 µM
  TGI: 3.5 µM
HOP-92 NSCLC
  GI50: 1.2 µM
  TGI: 2.62 µM
LOX IMVI melanoma
  GI50: 3.56 µM
  TGI: 15.6 µM
NCI-H23 lung
  GI50: 14.5 µM
  TGI: 34.7 µM
COLO 205 colon
  GI50: 10.9 µM
  TGI: 22.9 µM
CCRF-CEM leukemia
  GI50: 0.215 µM
  TGI: 0.62 µM
SK-MEL-28 melanoma
  GI50: 5.7 µM
  TGI: 10.7 µM
SNB-19 CNS
  GI50: 30 µM
  TGI: > 100 µM
HCC-2998 colon
  GI50: 21.5 µM
  TGI: 45.7 µM
T-47D breast
  GI50: 1.19 µM
  TGI: 3.51 µM
SNB-75 CNS
  GI50: 0.811 µM
  TGI: > 46.9 µM
SN12C renal
  GI50: 12.9 µM
  TGI: 25.8 µM
IGROV1 ovarian
  GI50: 1.06 µM
  TGI: 5 µM
HCT-116 colon
  GI50: 1.42 µM
  TGI: 2.89 µM
A498 renal
  GI50: 19.8 µM
  TGI: 63.9 µM
BT-549 breast
  GI50: 1.33 µM
  TGI: 21.3 µM
DU-145 prostate
  GI50: 12.1 µM
  TGI: 25.8 µM

## CCCCCCCCCCCCNC(=O)[C@H]1CSC(c2cc3ccccc3s2)N1 (stereo not given in full)
K-562 leukemia
  GI50: 0.717 µM
  TGI: 1.62 µM
RPMI-8226 leukemia
  GI50: 6 µM
  TGI: 15.3 µM
SK-MEL-2 melanoma
  GI50: 1.96 µM
  TGI: 6.49 µM
OVCAR-3 ovarian
  GI50: 3.79 µM
  TGI: 9.5 µM
A549 NSCLC
  GI50: 6.01 µM
  TGI: 11.3 µM
UACC-257 melanoma
  GI50: 4.12 µM
  TGI: 8.6 µM
SK-OV-3 ovarian
  GI50: 4.16 µM
  TGI: 8.38 µM
EKVX NSCLC
  GI50: 0.951 µM
  TGI: 2.69 µM
RXF 393 renal
  GI50: 0.942 µM
  TGI: 2.21 µM
OVCAR-4 ovarian
  GI50: 0.849 µM
  TGI: 1.97 µM
MALME-3M melanoma
  GI50: 5.75 µM
  TGI: 10.9 µM
M14 melanoma
  GI50: 0.591 µM
  TGI: 1.11 µM
SF-295 CNS
  GI50: 3.52 µM
  TGI: 8.33 µM
SR leukemia
  GI50: 0.695 µM
  TGI: 1.85 µM
OVCAR-8 ovarian
  GI50: 2.23 µM
  TGI: 8.53 µM
TK-10 renal
  GI50: 1.27 µM
  TGI: 4.88 µM
SK-MEL-5 melanoma
  GI50: 4.34 µM
  TGI: 8.72 µM
MDA-MB-435
  GI50: 0.605 µM
  TGI: 1.19 µM
SW-620 colon
  GI50: 2.3 µM
  TGI: 7.93 µM
UO-31 renal
  GI50: 4.16 µM
  TGI: 8.37 µM
MCF7 breast
  GI50: 4.02 µM
  TGI: 9.15 µM
HOP-62 NSCLC
  GI50: 0.732 µM
  TGI: 1.55 µM
HL-60(TB) leukemia
  GI50: 0.154 µM
  TGI: 8.69 µM
SF-539 CNS
  GI50: 1.36 µM
  TGI: 4.79 µM
KM12 colon
  GI50: 1.1 µM
  TGI: 3.55 µM
NCI-H460 lung
  GI50: 1.02 µM
  TGI: 2.5 µM
UACC-62 melanoma
  GI50: 1.15 µM
  TGI: 4.28 µM
NCI-H522 lung
  GI50: 5.11 µM
  TGI: 11.1 µM
MOLT-4 leukemia
  GI50: 0.657 µM
  TGI: 1.37 µM
CAKI-1 renal
  GI50: 2.09 µM
  TGI: 6.4 µM
NCI-H226 lung
  GI50: 3 µM
  TGI: 7.88 µM
786-0 renal
  GI50: 4.6 µM
  TGI: 9.11 µM
U251 CNS
  GI50: 2.61 µM
  TGI: 7.19 µM
HT29 colon
  GI50: 1.74 µM
  TGI: 5.87 µM
HS 578T breast
  GI50: 0.777 µM
  TGI: 1.86 µM
HCT-15 colon
  GI50: 3.69 µM
  TGI: 8.17 µM
NCI/ADR-RES ovarian
  GI50: 1.66 µM
  TGI: 6.83 µM
OVCAR-5 ovarian
  GI50: 4.16 µM
  TGI: 8.53 µM
ACHN renal
  GI50: 4.9 µM
  TGI: 9.29 µM
PC-3 prostate
  GI50: 1.3 µM
  TGI: 4.21 µM
MDA-MB-231 breast
  GI50: 0.706 µM
  TGI: 1.46 µM
HOP-92 NSCLC
  GI50: 5.41 µM
  TGI: 10.5 µM
LOX IMVI melanoma
  GI50: 0.534 µM
  TGI: 1.05 µM
NCI-H23 lung
  GI50: 1.92 µM
  TGI: 7.19 µM
COLO 205 colon
  GI50: 6.46 µM
  TGI: 12.3 µM
CCRF-CEM leukemia
  GI50: 0.725 µM
  TGI: 1.68 µM
SK-MEL-28 melanoma
  GI50: 0.644 µM
  TGI: 1.39 µM
SNB-19 CNS
  GI50: 5.47 µM
  TGI: 11.2 µM
HCC-2998 colon
  GI50: 4.88 µM
  TGI: 9.72 µM
T-47D breast
  GI50: 5.5 µM
  TGI: 12.3 µM
SNB-75 CNS
  GI50: 0.599 µM
  TGI: 1.12 µM
SN12C renal
  GI50: 2.8 µM
  TGI: 7.24 µM
IGROV1 ovarian
  GI50: 0.923 µM
  TGI: 2.51 µM
HCT-116 colon
  GI50: 1.06 µM
  TGI: 3.42 µM
A498 renal
  GI50: 10.2 µM
  TGI: 26.3 µM
BT-549 breast
  GI50: 1.01 µM
  TGI: 4.11 µM
DU-145 prostate
  GI50: 1.21 µM
  TGI: 4.19 µM
